Test results: US20240228468A1, “N-(6-((OCTAHYDROCYCLOPENTA[C]PYRROL-5-YI)AMINO)PYRIDAZIN-3-YL)PHENYL)CARBOXAMIDE AND (6- ((OCTAHYDROCYCLOPENTA[C]PYRROL-5-YL)AMINO)PYRIDAZIN-3-YL)BENZAMIDE DERIVATIVES AS MACHR M4 ANTAGONISTS FOR THE TREATMENT OF NEURODEGENERATIVE DISORDERS” (Vanderbilt University, priority 2021, published 2024)
pIC50: −log10 of the molar value. Like-named read-outs stand apart in the source and are kept apart here.

Molecular target: T1, Human M4 (Homo sapiens, UniProt P08173)
T1 construct: expressed in transfected cells; host or cells: CHO-K1 (ATCC), co-transfected with chimeric G protein Gqi5
T1 sequence (P08173 1-479): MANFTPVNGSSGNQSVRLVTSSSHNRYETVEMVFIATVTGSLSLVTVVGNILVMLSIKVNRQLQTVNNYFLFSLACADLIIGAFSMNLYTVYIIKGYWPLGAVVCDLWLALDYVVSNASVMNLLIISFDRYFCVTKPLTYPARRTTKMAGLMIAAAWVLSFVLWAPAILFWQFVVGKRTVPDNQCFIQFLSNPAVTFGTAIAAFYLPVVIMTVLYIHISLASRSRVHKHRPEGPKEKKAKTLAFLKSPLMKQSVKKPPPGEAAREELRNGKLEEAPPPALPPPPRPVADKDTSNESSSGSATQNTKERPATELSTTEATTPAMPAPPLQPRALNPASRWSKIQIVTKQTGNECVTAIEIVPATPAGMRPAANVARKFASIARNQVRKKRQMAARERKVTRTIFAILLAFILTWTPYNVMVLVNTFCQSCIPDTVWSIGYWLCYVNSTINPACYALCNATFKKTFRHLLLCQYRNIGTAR
Assay: mAChR M4 cell-based functional assay (calcium flux, antagonism of EC80 acetylcholine response)
Conditions: for pIC50: concentration-dependent decrease of the response elicited by an EC80 concentration of acetylcholine
Procedure: Human or rat M4 cDNA, along with the chimeric G protein Gqi5, were transfected into Chinese hamster ovary (CHO-K1) cells purchased from the American Type Culture Collection using Lipofectamine2000. M4/Gqi5/CHO cells were grown in Ham's F-12 medium containing 10% heat-inactivated fetal bovine serum (FBS), 20 mM HEPES, 500 μg/mL G418 sulfate, and 200 μg/mL Hygromycin B.
For high throughput measurement of agonist-evoked increases in intracellular calcium, CHO-K1 cells stably expressing muscarinic receptors were plated in growth medium lacking G418 and hygromycin at 15,000 cells/20 μL/well in Greiner 384-well black-walled, tissue culture (TC)-treated, clear-bottom plates (VWR). Cells were incubated overnight at 37° C. and 5% CO2. The next day, cells were washed using an ELX 405 (BioTek) with assay buffer; the final volume was then aspirated to 20 μL. Next, 20 μL of a 2.3 μM stock of Fluo-4/acetoxymethyl ester (Invitrogen, Carlsbad, CA), prepared as a 2.3 mM stock in DMSO and mixed in a 1:1 ratio with 10% (w/v) Pluronic F-127 and diluted in assay buffer, was added to the wells and the cell plates were incubated for 50 min at 37° C. and 5% CO2. Dye was removed by washing with the ELX 405 and the final volume was aspirated to 20 μL. Compound master plates were formatted in a 10 point concentration-response curve (CRC) format (1:3 dilutions) in 100% DMSO with a starting concentration of 10 or 1 mM using a BRAVO liquid handler (Agilent). Test compound CRCs were then transferred to daughter plates (240 nL) using the Echo acoustic plate reformatter (Labcyte, Sunnyvale, CA) and then diluted into assay buffer (40 μL) to a 2× stock using a Thermo Fisher Combi (Thermo Fisher Scientific, Waltham, MA).
Calcium flux was measured using the Functional Drug Screening System (FDSS) 6000 or 7000 (Hamamatsu Corporation, Tokyo, Japan) as an increase in the fluorescent static ratio. Compounds were applied to cells (20 μL, 2×) using the automated system of the FDSS at 2 seconds into the protocol and the data were collected at 1 Hz. At 143 s, 10 μL of an EC20 concentration of the muscarinic receptor agonist acetylcholine was added (5×), followed by the addition of 12 μL of an EC80 concentration of acetylcholine at the 268 s time point (5×). Agonist activity was analyzed as a concentration-dependent increase in calcium mobilization upon compound addition. Positive allosteric modulator activity was analyzed as a concentration-dependent increase in the EC20 acetylcholine response. Antagonist activity was analyzed as a concentration-dependent decrease in the EC80 acetylcholine response; for the purposes of the tables herein, an IC50 (inhibitory concentration 50) was calculated as a concentration-dependent decrease of the response elicited by an EC80 concentration of acetylcholine. Concentration-response curves were generated using a four-parameter logistical equation in XLFit curve fitting software (IDBS, Bridgewater, NJ) for Excel (Microsoft, Redmond, WA) or Prism (GraphPad Software, Inc., San Diego, CA) or the Dotmatics software platform (Dotmatics, Bishop's Stortford, UK).
Compounds were synthesized as described above. Activity (IC50 and Emin) was determined in the mAChR M4 cell-based functional assay as described above and the data are shown in Table 2.

[1] = M4/Gqi5/CHO-K1 cells, % ACh maximum at 30 μM, read-out: Human M4 Emin (% ACh maximum at 30 μM)

Row | SMILES | remaining activity at 30 µM [1] [%] | pIC50 (M4/Gqi5/CHO-K1 cells) | remaining activity at 30 µM (CHO-K1, read-out: Human M4 Emin (% ACh maximum at 30 μM)) [%] | Human M4 Emin (% ACh maximum at 30 μM) (M4/Gqi5/CHO-K1 cells, % ACh maximum at 30 μM) [%]
1 | CC(=O)Nc1ccc(-c2ccc(N[C@H]3C[C@@H]4CN(Cc5ccccc5C(F)(F)F)C[C@@H]4C3)nn2)cc1 [Compound A7, N-(4-(6-(((3aR,5s,6aS)-2-(2-(trifluoromethyl)benzyl)octahydrocyclopenta [c]pyrrol-5-yl)amino)pyridazin-3-yl)phenyl)acetamide] | 10 | 5.96 | – | –
2 | [2H]C([2H])([C@H]1COCCO1)N1C[C@H]2C[C@H](Nc3ccc(-c4cccc(C(=O)NC)c4)nn3)C[C@H]2C1 [Compound A77, 3-(6-(((3aR,5s,6aS)-2-(((S)-1,4-dioxan-2-yl)methyl-d2)octahydrocyclopenta[c]pyrrol-5-yl)amino)pyridazin-3-yl)-N-methylbenzamide] | 4 | 7.35 | – | –
3 | [2H]C([2H])(C1CCOCC1)N1C[C@H]2C[C@H](Nc3ccc(-c4ccccc4C(=O)NC)nn3)C[C@H]2C1 [Compound A48, N-methyl-2-(6-(((3aR,5s,6aS)-2-((tetrahydro-2H-pyran-4-yl)methyl-d2)octahydrocyclopenta[c]pyrrol-5-yl)amino)pyridazin-3-yl)benzamide] | 4 | 7.13 | – | –
4 | [2H]C([2H])([2H])NC(=O)c1ccc(-c2ccc(N[C@H]3C[C@@H]4CN(C([2H])([2H])C5CCOCC5)C[C@@H]4C3)nn2)cc1 (single isomer, unassigned) [Compound A55] | – | 8.29 | 3 | –
5 | CC1(O)CN(C(=O)c2ccc(-c3ccc(N[C@H]4C[C@@H]5CN(CC6CCOCC6)C[C@@H]5C4)nn3)cc2)C1 [Compound A23, (3-hydroxy-3-methylazetidin-1-yl)(4-(6-(((3aR,5s,6aS)-2-((tetrahydro-2H-pyran-4-yl)methyl)octahydrocyclopenta[c]pyrrol-5-yl)amino)pyridazin-3-yl)phenyl)methanone] | 3 | 7.82 | – | –
6 | CNC(=O)c1ccc(-c2ccc(N[C@H]3C[C@@H]4CN(CC5CCOCC5)C[C@@H]4C3)nn2)cc1 [Compound A63, N-methyl-4-(6-(((3aR,5s,6aS)-2-((tetrahydro-2H-pyran-4-yl)methyl)octahydrocyclopenta[c]pyrrol-5-yl)amino)pyridazin-3-yl)benzamide] | 3 | 8.92 | – | –
7 | [2H]C([2H])(C1CCOCC1)N1C[C@H]2C[C@H](Nc3ccc(-c4cccc(C(=O)NCC)c4)nn3)C[C@H]2C1 [Compound A46, N-ethyl-3-(6-(((3aR,5s,6aS)-2-((tetrahydro-2H-pyran-4-yl)methyl-d2)octahydrocyclopenta[c]pyrrol-5-yl)amino)pyridazin-3-yl)benzamide] | 4 | 7.70 | – | –
8 | [2H]C([2H])(C1CCOCC1)N1C[C@H]2C[C@H](Nc3ccc(-c4cccc(NC(=O)CC)c4)nn3)C[C@H]2C1 [Compound A57, N-(3-(6-(((3aR,5s,6aS)-2-((tetrahydro-2H-pyran-4-yl)methyl-d2)octahydrocyclopenta[c]pyrrol-5-yl)amino)pyridazin-3-yl)phenyl)propionamide] | 3 | 7.43 | – | –
9 | O=C(NC1CC(F)(F)C1)c1cc(F)c(F)c(-c2ccc(N[C@H]3C[C@@H]4CN(CC5CCOCC5)C[C@@H]4C3)nn2)c1 [Compound A19, N-(3,3-difluorocyclobutyl)-3,4-difluoro-5-(6-(((3aR,5s,6aS)-2-((tetrahydro-2H-pyran-4-yl)methyl)octahydrocyclopenta[c]pyrrol-5-yl)amino)pyridazin-3-yl)benzamide] | 4 | 7.09 | – | –
10 | [2H]C([2H])(C1CCOCC1)N1C[C@H]2C[C@H](Nc3ccc(-c4cc(C(=O)NC)ccc4F)nn3)C[C@H]2C1 [Compound A69, 4-fluoro-N-methyl-3-(6-(((3aR,5s,6aS)-2-((tetrahydro-2H-pyran-4-yl)methyl-d2)octahydrocyclopenta[c]pyrrol-5-yl)amino)pyridazin-3-yl)benzamide] | 5 | 6.92 | – | –
11 | CNC(=O)c1ccccc1-c1ccc(N[C@H]2C[C@@H]3CN(CC4CCOCC4)C[C@@H]3C2)nn1 [Compound A45, N-methyl-2-(6-(((3aR,5s,6aS)-2-((tetrahydro-2H-pyran-4-yl)methyl)octahydrocyclopenta[c]pyrrol-5-yl)amino)pyridazin-3-yl)benzamide] | 6 | 6.74 | – | –
12 | [2H]C([2H])(C1CCOCC1)N1C[C@H]2C[C@H](Nc3ccc(-c4ccccc4C(=O)NCC)nn3)C[C@H]2C1 [Compound A59, N-ethyl-2-(6-(((3aR,5s,6aS)-2-((tetrahydro-2H-pyran-4-yl)methyl-d2)octahydrocyclopenta[c]pyrrol-5-yl)amino)pyridazin-3-yl)benzamide] | 6 | 6.77 | – | –
13 | [2H]C([2H])([C@H]1CCCCO1)N1C[C@H]2C[C@H](Nc3ccc(-c4cccc(C(=O)NC)c4)nn3)C[C@H]2C1 [Compound A81, N-methyl-3-(6-(((3aR,5s,6aS)-2-(((R)-tetrahydro-2H-pyran-2-yl)methyl-d2)octahydrocyclopenta[c]pyrrol-5-yl)amino)pyridazin-3-yl)benzamide] | 4 | 9.39 | – | –
14 | [2H]C([2H])([2H])C(=O)Nc1ccccc1-c1ccc(N[C@H]2C[C@@H]3CN(CC4CCOCC4)C[C@@H]3C2)nn1 [Compound B3, N-(2-(6-(((3aR,5s,6aS)-2-((tetrahydro-2H-pyran-4-yl)methyl)octahydrocyclopenta [c]pyrrol-5-yl)amino)pyridazin-3-yl)phenyl) acetamide-2,2,2-d3] | – | 6.92 | – | 4
15 | CC(=O)Nc1ccc(-c2ccc(N[C@H]3C[C@@H]4CN(Cc5ccc6c(c5)OCO6)C[C@@H]4C3)nn2)cc1 [Compound A4, N-(4-(6-(((3aR,5s,6aS)-2-(benzo[d][1,3]dioxol-5-ylmethyl)octahydrocyclopenta[c]pyrrol-5-yl)amino)pyridazin-3-yl)phenyl)acetamide] | 3 | 9.72 | – | –
16 | [2H]C([2H])([C@H]1CCCCO1)N1C[C@H]2C[C@H](Nc3ccc(-c4cc(F)cc(C(=O)NC)c4)nn3)C[C@H]2C1 [Compound A87, 3-fluoro-N-methyl-5-(6-(((3aR,5s,6aS)-2-(((R)-tetrahydro-2H-pyran-2-yl)methyl-d2)octahydrocyclopenta[c]pyrrol-5-yl)amino)pyridazin-3-yl)benzamide] | 4 | 9.05 | – | –
17 | [2H]C([2H])(C1CCOCC1)N1C[C@H]2C[C@H](Nc3ccc(-c4cc(F)c(C(N)=O)c(F)c4)nn3)C[C@H]2C1 [Compound A68, 2,6-difluoro-4-(6-(((3aR,5s,6aS)-2-((tetrahydro-2H-pyran-4-yl)methyl-d2)octahydrocyclopenta[c]pyrrol-5-yl)amino)pyridazin-3-yl)benzamide] | 4 | 7.96 | – | –
